ChEMBL document CHEMBL1201862, “PubChem BioAssay data set” (2004)
The source made the active and inactive calls.

How the values were obtained:
[1] = biological target: Mitochondrial peptide methionine sulfoxide reductase (Bos taurus, UniProt P54149); assay type: functional;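 also: absorbance read-out, biochemical high-throughput dose-response screen for MsrA inhibitors, confirmatory; recombinant bovine MsrA coupled to E. coli TrxB with NADPH and selenocystamine; potency is for inhibitors of MsrA activity on DMSO substrate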
[2] = intracellular Trypanosoma cruzi inhibitors in host cells – cell-based, plate reader, cherry-pick samples, set 3, dose response (AID 651818); assay type: functional;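 also: compounds incubated with infected cells for about four days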
[3] = biological target: Adenosylmethionine-8-amino-7-oxononanoate aminotransferase (Mycobacterium tuberculosis, UniProt P9WQ81); assay: Mycobacterium tuberculosis BioA enzyme inhibitor Measured in Biochemical System Using Plate Reader - 2163-02_Inhibitor_Dose_CherryPick_Activity.; assay type: functional, Mycobacterium tuberculosis UT205
[4] = biological target: T1, Histone-lysine N-methyltransferase NSD2 (Homo sapiens, UniProt O96028); assay type: biochemical
T1 sequence (O96028 whole entry): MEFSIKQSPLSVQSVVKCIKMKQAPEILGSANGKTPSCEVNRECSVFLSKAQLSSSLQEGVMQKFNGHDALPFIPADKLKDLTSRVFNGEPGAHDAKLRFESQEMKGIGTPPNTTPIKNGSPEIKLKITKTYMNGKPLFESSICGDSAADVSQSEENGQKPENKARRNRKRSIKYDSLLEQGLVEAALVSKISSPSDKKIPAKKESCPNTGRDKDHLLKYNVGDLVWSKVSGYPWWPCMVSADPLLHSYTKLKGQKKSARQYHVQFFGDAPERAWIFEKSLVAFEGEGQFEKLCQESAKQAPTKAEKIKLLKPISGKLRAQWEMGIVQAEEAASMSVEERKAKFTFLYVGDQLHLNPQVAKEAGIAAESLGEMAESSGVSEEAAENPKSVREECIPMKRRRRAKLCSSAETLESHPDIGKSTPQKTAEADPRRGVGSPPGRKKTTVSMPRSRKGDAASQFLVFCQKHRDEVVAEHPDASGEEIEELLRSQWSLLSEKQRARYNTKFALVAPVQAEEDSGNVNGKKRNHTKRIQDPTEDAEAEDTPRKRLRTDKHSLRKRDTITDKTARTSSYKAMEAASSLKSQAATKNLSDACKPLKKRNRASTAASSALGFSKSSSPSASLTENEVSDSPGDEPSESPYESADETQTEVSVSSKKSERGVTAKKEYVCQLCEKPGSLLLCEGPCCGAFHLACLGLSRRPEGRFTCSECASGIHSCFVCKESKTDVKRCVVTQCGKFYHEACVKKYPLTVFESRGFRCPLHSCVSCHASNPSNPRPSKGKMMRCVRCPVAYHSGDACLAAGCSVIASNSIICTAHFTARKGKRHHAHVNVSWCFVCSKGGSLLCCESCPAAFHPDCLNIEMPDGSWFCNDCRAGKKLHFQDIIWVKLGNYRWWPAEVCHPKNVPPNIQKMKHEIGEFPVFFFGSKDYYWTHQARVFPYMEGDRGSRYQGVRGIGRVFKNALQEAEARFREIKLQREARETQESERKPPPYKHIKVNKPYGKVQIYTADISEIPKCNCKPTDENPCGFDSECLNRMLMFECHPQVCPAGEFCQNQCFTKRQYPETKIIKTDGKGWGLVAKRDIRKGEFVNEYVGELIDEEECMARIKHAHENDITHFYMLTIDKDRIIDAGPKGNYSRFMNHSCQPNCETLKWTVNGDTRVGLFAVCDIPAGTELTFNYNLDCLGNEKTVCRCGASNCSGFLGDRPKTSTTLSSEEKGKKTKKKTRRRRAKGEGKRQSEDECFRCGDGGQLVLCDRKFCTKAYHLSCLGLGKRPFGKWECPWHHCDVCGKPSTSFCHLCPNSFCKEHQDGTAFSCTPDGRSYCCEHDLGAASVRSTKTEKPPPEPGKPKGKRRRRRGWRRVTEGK

Protein Wnt-3a = Protein Wnt-3a (Mus musculus, UniProt P27467); assay: Wnt3a-driven reporter signaling inhibition, dose response, selectivity assay for Gli-SUFU antagonist project, Wnt-LIGHT cells, luminescence (AID 651570); assay type: functional; settings: read-out: IC50_Mean;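 also: Wnt-LIGHT reporter cells stimulated with conditioned medium from Wnt3a-producing cells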
[5] = biological target: T2, Latent membrane protein 1 (Human herpesvirus 4 (strain B95-8), UniProt P03230); assay: TES1-eGFP NF-kB reporter inhibition versus Tet-On dsRED, dose response, selectivity assay for LMP1 NF-kB inhibitor project, imaging, HEK293T, dual-color eGFP/dsRED, cherry-picks (AID 588398); assay type: functional, cell-based
T2 sequence (P03230 whole entry): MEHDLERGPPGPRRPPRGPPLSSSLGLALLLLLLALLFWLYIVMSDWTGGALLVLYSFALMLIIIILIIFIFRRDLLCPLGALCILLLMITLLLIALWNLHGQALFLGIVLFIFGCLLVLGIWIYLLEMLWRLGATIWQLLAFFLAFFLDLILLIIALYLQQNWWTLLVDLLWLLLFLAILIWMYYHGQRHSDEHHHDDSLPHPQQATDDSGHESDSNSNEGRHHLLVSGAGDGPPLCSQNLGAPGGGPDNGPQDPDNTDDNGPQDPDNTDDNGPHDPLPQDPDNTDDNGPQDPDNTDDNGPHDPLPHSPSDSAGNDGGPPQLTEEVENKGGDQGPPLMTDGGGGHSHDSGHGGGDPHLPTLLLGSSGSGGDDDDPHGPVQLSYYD

Streptococcus = assay: Group A Streptococcus viability loss, dose response, counter-screen for streptokinase expression inhibitor project, luminescence, BacTiterGlo (AID 1915); assay type: functional, organism-based;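 also: potency for reduction of bacterial viability or growth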
INS1 = assay: beta cell apoptosis inhibitors, cytokine rescue, dose response, luminescence, retest (AID 449756); assay type: functional, cell-based; settings: Rattus norvegicus, INS1;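 also: cell death triggered by IL-1 beta plus TNF-alpha plus IFN-gamma mixture; protective hits raise ATP signal compared with cytokine alone wells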
[6] = Luminescence-based counterscreen assay for KLF5 inhibitors: dose response cell-based high throughput screening assay to identify cytotoxic compounds using the IEC-6 intestinal epithelial cell line. [Related pubchem assays: 1700 (Primary screen.), 1834 (Confirmation screen.), 1858 (Summary AID.), 1905 (Counterscreen.)]; assay type: functional
Nonstructural protein 1 = Nonstructural protein 1 (Influenza A virus, UniProt Q194T2); assay type: functional, Influenza A virus (A/California/07/2009(H1N1))
[7] = test system: Streptococcus sp. 'group A'; assay: growth inhibition of control SK(-) GAS strain, dose response, counter-screen for streptokinase expression inhibitor project, luminescence, kanamycin, BacTiterGlo, confirmation (AID 1900); assay type: functional, organism-based

Mitochondrial peptide methionine sulfoxide reductase, sequence (P54149 whole entry): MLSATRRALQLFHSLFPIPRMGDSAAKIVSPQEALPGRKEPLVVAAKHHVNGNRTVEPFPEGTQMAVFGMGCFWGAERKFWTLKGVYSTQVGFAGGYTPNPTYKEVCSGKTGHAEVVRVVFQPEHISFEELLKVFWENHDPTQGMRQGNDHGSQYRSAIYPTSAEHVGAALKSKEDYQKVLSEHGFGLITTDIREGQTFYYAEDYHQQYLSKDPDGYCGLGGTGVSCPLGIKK
Protein Wnt-3a, sequence (P27467 whole entry): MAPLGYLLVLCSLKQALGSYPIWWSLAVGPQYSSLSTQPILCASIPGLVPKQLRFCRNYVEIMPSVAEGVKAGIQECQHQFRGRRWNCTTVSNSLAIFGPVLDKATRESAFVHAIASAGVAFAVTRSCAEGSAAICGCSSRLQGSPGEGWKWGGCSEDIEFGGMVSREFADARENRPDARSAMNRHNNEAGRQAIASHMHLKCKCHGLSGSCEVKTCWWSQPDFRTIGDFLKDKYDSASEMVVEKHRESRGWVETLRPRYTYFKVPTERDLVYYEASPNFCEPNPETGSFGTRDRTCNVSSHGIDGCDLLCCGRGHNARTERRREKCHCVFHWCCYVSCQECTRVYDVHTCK
Nonstructural protein 1, sequence (Q194T2 whole entry): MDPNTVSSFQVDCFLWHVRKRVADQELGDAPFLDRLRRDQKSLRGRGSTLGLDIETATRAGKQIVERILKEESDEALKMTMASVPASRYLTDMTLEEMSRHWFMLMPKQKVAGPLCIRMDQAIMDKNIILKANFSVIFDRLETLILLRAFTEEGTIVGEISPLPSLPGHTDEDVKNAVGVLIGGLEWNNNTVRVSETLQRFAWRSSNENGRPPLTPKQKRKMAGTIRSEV
Adenosylmethionine-8-amino-7-oxononanoate aminotransferase, sequence (P9WQ81 whole entry): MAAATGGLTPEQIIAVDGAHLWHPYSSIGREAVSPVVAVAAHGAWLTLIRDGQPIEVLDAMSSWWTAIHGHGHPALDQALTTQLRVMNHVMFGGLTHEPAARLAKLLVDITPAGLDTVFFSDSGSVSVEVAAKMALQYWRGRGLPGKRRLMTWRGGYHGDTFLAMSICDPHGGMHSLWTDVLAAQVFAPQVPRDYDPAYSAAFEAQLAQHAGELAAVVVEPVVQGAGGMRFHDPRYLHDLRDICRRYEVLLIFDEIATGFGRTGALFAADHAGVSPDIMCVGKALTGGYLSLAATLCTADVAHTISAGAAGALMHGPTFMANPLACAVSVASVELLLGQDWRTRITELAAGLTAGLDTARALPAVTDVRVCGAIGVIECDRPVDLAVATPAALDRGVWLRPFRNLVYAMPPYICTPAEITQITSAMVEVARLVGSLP

**Q.** For CCOC(=O)/C(C#N)=C/Nc1ccccc1OC, which IC50 [1] is on record?
**A.** 155 µM (inactive)

**Q.** With CCOC(=O)/C(C#N)=C/C(C(=N)N1CCN(c2ccc(OC)cc2)CC1)=C(/O)OCC as the compound, how does the IC50 [1] read?
**A.** 139 µM (inactive)

**Q.** Which AC50 [2] does the source give for C[C@H](CO)N1C[C@H](C)[C@H](CN(C)Cc2ccc3c(c2)OCO3)Oc2c(NC(=O)c3nc4ccccc4s3)cccc2C1=O here?
**A.** 4.58 µM (active)

**Q.** Which AC50 [3] does the source give for COc1ccc(Cn2ccc(=O)c(Cc3c(Cl)cccc3Cl)c2C)cc1 here?
**A.** 7.22 µM (active)

**Q.** Which AC50 [2] does the source give for C[C@@H]1CN([C@@H](C)CO)C(=O)Cc2cc(NC(=O)Nc3ccc(F)cc3)ccc2O[C@@H]1CN(C)Cc1ccc(C(=O)Nc2ccccc2N)cc1 here?
**A.** 2.16 µM (active)

**Q.** For CCN1CCCC1CNc1[nH]cnc2c3cc(Cl)ccc3nc1-2 (stereo not drawn), which AC50 [4] is on record?
**A.** > 20 µM (inactive)

**Q.** And the IC50 (Protein Wnt-3a)?
**A.** 50 µM (inactive)

**Q.** For O=C(N/N=C/c1cc(Cl)ccc1O)c1cccnc1, which AC50 [5] is on record?
**A.** 128 µM (active)

**Q.** And the EC50 (Streptococcus)?
**A.** 7.97 µM (active)

**Q.** What about the AC50 (INS1) of the same compound?
**A.** 1.71 µM (active)

**Q.** And the IC50 [6]?
**A.** > 1.48 µM (active)

**Q.** And the IC50 (Nonstructural protein 1)?
**A.** 5.8 µM (active)

**Q.** What about the EC50 [7] of the same compound?
**A.** 1.81 µM (active)
